# According to ChEMBL document CHEMBL5214925, “Dual-target inhibitors of indoleamine 2, 3 dioxygenase 1 (Ido1): A promising direction in cancer immunotherapy” (Eur J Med Chem, 2022):
# Legend:
# [1] = molecular target: T1, Indoleamine 2,3-dioxygenase 1 (Homo sapiens, UniProt P14902); assay: Inhibition of IDO1 in human BT-549 cells; format: cell-based; conditions: pooled result: one value given for 2 cell lines, strains, targets or settings
# Target sequence in this assay (P14902 whole entry): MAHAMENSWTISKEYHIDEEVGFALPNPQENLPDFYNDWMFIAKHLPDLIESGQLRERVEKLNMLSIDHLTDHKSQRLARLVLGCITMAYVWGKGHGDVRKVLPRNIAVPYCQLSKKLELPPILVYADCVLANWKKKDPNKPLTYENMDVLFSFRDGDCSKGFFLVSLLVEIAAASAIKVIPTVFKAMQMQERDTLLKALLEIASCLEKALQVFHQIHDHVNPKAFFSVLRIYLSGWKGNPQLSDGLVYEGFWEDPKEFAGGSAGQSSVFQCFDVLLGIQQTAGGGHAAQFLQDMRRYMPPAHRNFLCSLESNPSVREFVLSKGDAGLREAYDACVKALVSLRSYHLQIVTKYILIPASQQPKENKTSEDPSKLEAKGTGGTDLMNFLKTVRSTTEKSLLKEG
# [2] = Antitumor activity against Lewis Lung carcinoma cells in mouse expressing IDO1 assessed as tumor growth inhibition relative to control; format: functional
# [3] = system: HCT-116; assay: Antiproliferative activity against human HCT-116 cells; format: functional, cell-based
# [4] = system: CT26; assay: Antiproliferative activity against mouse CT26 cells; format: functional, cell-based
# [5] = molecular target: T1, Indoleamine 2,3-dioxygenase 1; assay: Inhibition of IDO1 (unknown origin)
# Target sequence in this assay (P14902 whole entry): as above
# [6] = Antiproliferative activity against mouse Lewis lung carcinoma cell line; format: functional, cell-based
# [7] = system: CT26; assay: Cytotoxicity against […] cells by CCK-8 method; format: functional, cell-based; conditions: Mus musculus
# [8] = system: HCT-116; assay: Cytotoxicity against human HCT-116 cells by CCK-8 method; format: functional, cell-based
# [9] = system: HT-29; assay: Cytotoxicity against human HT-29 cells by CCK-8 method; format: functional, cell-based
# [10] = system: A549; assay: Cytotoxicity against human A549 cells by CCK-8 method; format: functional, cell-based
# [11] = system: HeLa; assay: Cytotoxicity against human HeLa cells; format: functional; conditions: read-out: LC50 (the source's name)
# [12] = molecular target: T1, Indoleamine 2,3-dioxygenase 1; assay: Inhibition of human recombinant IDO1 in human HeLa cells incubated for 48 hrs; format: cell-based
# Target sequence in this assay (P14902 whole entry): as above
# [13] = system: CT26; assay: Antitumor activity against mouse CT26 cells allografted in immunocompetent mouse assessed as tumor growth inhibition relative to control; format: functional
# [14] = system: CT26; assay: Antitumor activity against mouse CT26 cells allografted in nude mouse assessed as reduction in tumor volume relative to control; format: functional; parameters: scale not given: the % may be the effect or the level left
# [15] = Antitumor activity against mouse HEPA1-6 cells allografted in mouse model over expressing IDO1 assessed as tumor growth inhibition relative to control; format: functional
# [16] = Antitumor activity against mouse LL2 cells allografted in mouse model over expressing IDO1 assessed as tumor growth inhibition relative to control; format: functional, Lewis lung carcinoma
# [17] = Antitumor activity against mouse HEPA1-6 cells allografted in mouse model over expressing TDO assessed as tumor growth inhibition relative to control; format: functional
# [18] = molecular target: T1, Indoleamine 2,3-dioxygenase 1; assay: Inhibition of IDO1 (unknown origin) using L-tryptophan as substrate incubated for 10 mins
# Target sequence in this assay (P14902 whole entry): as above
# [19] = molecular target: Histone deacetylase 1 (Homo sapiens, UniProt Q13547); assay: Inhibition of HDAC1 (unknown origin) using […] as substrate preincubated for 15 mins followed by substrate addition measured after 60 mins
# [20] = molecular target: T1, Indoleamine 2,3-dioxygenase 1; assay: Inhibition of recombinant N-terminal His tagged IDO1 (unknown origin) expressed in Escherichia coli incubated for 1.5 hrs by FULOstar OMEGA plate reader method
# Target sequence in this assay (P14902 whole entry): as above
# [21] = molecular target: Tryptophan 2,3-dioxygenase (Homo sapiens, UniProt P48775); assay: Inhibition of recombinant C-terminal His tagged TDO (unknown origin) expressed in Escherichia coli
# [22] = Volume of distribution in Sprague-Dawley rat plasma; format: ADME, cell-free
# [23] = system: CT26; assay: Antitumor activity against mouse CT26 cells allografted in mouse assessed as tumor growth inhibition at 50 mg/kg; format: functional; conditions: read-out: TGI
# [24] = Clearance in Sprague-Dawley rat plasma; format: ADME, cell-free
# [25] = molecular target: T1, Indoleamine 2,3-dioxygenase 1; assay: Inhibition of IDO1 (unknown origin) using L-tryptophan as substrate at 10 uM incubated for 10 mins relative to control
# Target sequence in this assay (P14902 whole entry, looked up): as the sequence (P14902 whole entry) above
# [26] = Antitumor activity against Lewis lung carcinoma cell in C57BL/6 mouse assessed as tumor growth inhibition at 60 mg/kg relative to control; format: functional; conditions: C57BL/6, Lewis lung carcinoma, read-out: TGI
# [27] = molecular target: T1, Indoleamine 2,3-dioxygenase 1; assay: Inhibition of IDO1 in human A-172 cells; format: cell-based
# Target sequence in this assay (P14902 whole entry): as above
# [28] = Antiproliferative activity against melanoma cells (unknown origin) subcutaneously xenografted in mouse model assessed as inhibition of cell growth rate at 100 mg/kg relative to control; format: functional; conditions: sc
# [29] = Antiproliferative activity against melanoma cells (unknown origin) subcutaneously xenografted in mouse model assessed as inhibition of cell growth rate at 50 mg/kg relative to control; format: functional; conditions: sc
# [30] = Inhibition of rat liver TrxR incubated for 1 hr; format: tissue-based
# [31] = Cytotoxicity against human colon epithelial cells incubated for 24 hrs by CCK-8 assay; format: functional, cell-based; conditions: Epithelial cell
# [32] = system: HCT-116; assay: Cytotoxicity against human HCT-116 incubated for 24 hrs by CCK-8 assay; format: functional, cell-based; conditions: HCT-116, 24 h
# [33] = molecular target: T1, Indoleamine 2,3-dioxygenase 1; assay: Inhibition of IDO1 in human HeLa cells; format: cell-based
# [34] = Inhibition of TrxR in human HCT-116 cell lysate; format: subcellular
# [35] = molecular target: T1, Indoleamine 2,3-dioxygenase 1; assay: Inhibition of human N-terminal His tagged recombinant IDO1 (5 to 403 residues) expressed in Escherichia coli BL21 (DE3)
# Chain of Tryptophan 2,3-dioxygenase (P48775 whole entry): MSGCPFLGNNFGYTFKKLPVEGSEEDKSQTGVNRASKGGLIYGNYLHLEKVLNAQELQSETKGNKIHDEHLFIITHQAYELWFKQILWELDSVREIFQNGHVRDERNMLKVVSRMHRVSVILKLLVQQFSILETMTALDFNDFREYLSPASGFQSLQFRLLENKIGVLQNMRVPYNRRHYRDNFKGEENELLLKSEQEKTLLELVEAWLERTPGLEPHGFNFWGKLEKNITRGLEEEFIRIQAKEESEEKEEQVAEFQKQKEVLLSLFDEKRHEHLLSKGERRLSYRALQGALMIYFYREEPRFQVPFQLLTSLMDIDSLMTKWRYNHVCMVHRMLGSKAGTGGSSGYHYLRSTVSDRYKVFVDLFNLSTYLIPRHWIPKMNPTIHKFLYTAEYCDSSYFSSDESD
# Chain of Histone deacetylase 1 (Q13547 whole entry): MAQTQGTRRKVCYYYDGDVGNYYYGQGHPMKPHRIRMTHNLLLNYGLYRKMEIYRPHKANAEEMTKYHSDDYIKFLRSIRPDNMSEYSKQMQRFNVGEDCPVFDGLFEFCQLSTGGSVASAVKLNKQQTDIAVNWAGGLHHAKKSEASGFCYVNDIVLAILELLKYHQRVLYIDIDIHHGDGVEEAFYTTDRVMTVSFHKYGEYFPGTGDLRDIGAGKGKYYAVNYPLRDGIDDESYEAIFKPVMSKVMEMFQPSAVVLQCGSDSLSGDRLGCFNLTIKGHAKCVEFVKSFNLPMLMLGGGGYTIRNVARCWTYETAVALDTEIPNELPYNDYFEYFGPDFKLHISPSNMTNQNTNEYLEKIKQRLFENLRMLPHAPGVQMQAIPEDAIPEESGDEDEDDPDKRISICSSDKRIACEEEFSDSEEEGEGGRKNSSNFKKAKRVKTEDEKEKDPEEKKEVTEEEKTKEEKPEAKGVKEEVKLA
smiles,measurement,setting,value
COc1ccccc1C(=O)CC(=O)c1ccc(C)cc1O,IC50,[1],20.6 µM
NC(CC(=O)O)Cc1c[nH]c2ccc(N(CCCl)CCCl)cc12 (stereo unspecified),TGI,[2],63.8%
same,IC50,[3],23.7 µM
same,IC50,[4],23.7 µM
same,IC50,[5],14 µM
same,IC50,[6],23.7 µM
O=C(NCCNc1nonc1/C(=N/O)Nc1ccc(F)c(Br)c1)c1cccc(N(CCCl)CCCl)c1,IC50,[7],25 µM
same,IC50,[8],25 µM
same,IC50,[9],19 µM
same,IC50,[10],17 µM
same,CC50,[11],39 µM
same,EC50,[12],0.27 µM
same,TGI,[13],58.2%
same,Activity,[14],28.6%
O=C1c2cc(F)ccc2C(=O)c2c1nnn2-c1ccc(F)c(Cl)c1,TGI,[15],80%
same,TGI,[16],62.5%
same,TGI,[17],80%
Cc1ccc2c(c1CCC(=O)NCCCCCC(=O)CNc1ccccc1N)C(=O)C(=O)C(C(C)C)=C2,IC50,[18],0.73 µM
same,IC50,[19],0.46 µM
O[C@@H](c1cn2cncc2cc1Cl)C1CCCCC1,IC50,[20],0.0096 µM
same,IC50,[21],0.029 µM
OCCOCc1cn(CCNc2nonc2/C(=N/O)Nc2ccc(F)c(Br)c2)nn1,Vd,[22],0.88 L/kg
same,inhibition in vivo at 50 mg/kg,[23],69.7%
same,clearance,[24],27.5 mL/min/kg
CC(C)=CCCc1c(C)ccc2c1C(=O)C(=O)C(C(C)C)=C2,inhibition,[25],85%
Cn1cc(-c2ccc(NC(N)=O)cc2)c2ccc(F)cc21,IC50,[20],0.049 µM
same,IC50,[21],0.078 µM
NS(=O)(=O)NCCNc1nonc1/C(=N/O)Nc1ccc(F)c(Br)c1 [EPACADOSTAT],inhibition in vivo at 60 mg/kg,[26],68%
same,TGI,[13],47.5%
CC1=C(CC(=O)c2sccc2Br)C(=O)c2ccccc2C1=O,IC50,[27],37.7 µM
COc1cc(Nc2cc(NC(C)=O)cc3[nH]c(C(=O)O)cc23)cc(OC)c1OC,inhibition in vivo at 100 mg/kg,[28],44.7%
same,inhibition in vivo at 50 mg/kg,[29],43.2%
Cc1ccc(C(=O)CC(=O)c2ccccc2OC(C)C)c(O)c1,IC50,[1],10.8 µM
O=C1C=CCCN1C(=O)/C=C/c1ccccc1-c1c[nH]cn1,IC50,[30],7.89 µM
same,IC50,[31],42 µM
same,IC50,[32],0.55 µM
same,EC50,[33],1.41 µM
same,IC50,[34],4.22 µM
same,IC50,[35],0.084 µM
COc1cc(/C=C/C(=O)N2CCC=CC2=O)cc(OC)c1OC [PIPLARTINE],IC50,[31],46.9 µM
same,IC50,[32],6.38 µM
NC(CC(=O)O)Cc1c[nH]c2cc(N(CCCl)CCCl)ccc12 (stereo unspecified),TGI,[2],73.5%
same,IC50,[3],63.9 µM
same,IC50,[4],63.9 µM
same,IC50,[5],227 µM
same,IC50,[6],63.9 µM
